Results reported in PubChem BioAssay AID1918932 (Molecular Pharmacology Branch, DTP, NCI, 2023).
Values joined by “and” are separate entries in the source; they are usually repeats but may differ in a detail not shown here. Equal entries are not always repeated.

Test system: 171881-019-R-J1-PDC complex spheroid viability
Experiment: Anticancer human tumor 171881-019-R-J1-PDC patient-derived invasive breast carcinoma cell line growth inhibition
Conditions: for viability, T/C: stronger effect = lower value; active = viability on the fitted dose curve at most 10% of control; inactive = the rest
Text: Multicellular complex tumor spheroid response to LSD1 Inhibitor Iadademstat in combination with a variety of drugs and investigational agents in selected tumor cell lines
The current study was undertaken to assess response to LSD1 inhibitors in combination with standard-of-care drugs and investigational agents in solid tumor complex spheroid models as well as in the K-562 leukemia. Complex spheroids include a stromal component modeled by human endothelial cells (HUVEC) and fibroblasts modeled by human mesenchymal stem cells (MSCs). The concentration ranges selected for each drug and investigational agent were based upon clinically achievable concentrations if the clinical Cmax of the agent was known.
Compounds. The drugs and investigational agents used in this study are listed on Table 1. All of the agents used, including staurosporine (NSC755774) and gemcitabine (NSC613327), were obtained from the Developmental Therapeutics Program, NCI. FDA-approved anticancer drugs are available from the NCI at http://dtp.nci.nih.gov/branches/dscb/oncology_drugset_explanation.html. Drugs and investigational agents were >95% pure by proton nuclear magnetic resonance (NMR) and liquid chromatography/mass spectrometry (LC/MS). Stock solutions were prepared at 400x in DMSO, stored at -70 degrees C, and diluted in fresh medium prior to their use. The final concentration of DMSO in cell culture wells never exceeded 0.25% (v/v). The FDA-approved anticancer drug set is available from the Developmental Therapeutics Program at https://dtp.cancer.gov/organization/dscb/obtaining/available_plates.htm. All drugs and investigational agents were tested over a range starting from a high concentration at or near the clinical Cmax and decreasing in half-log increments. If the clinical Cmax for an agent had not been determined, the highest concentration tested was 10 microM.
Cell Lines. The patient-derived cancer cell (PDC) lines: 292921-168-R-J2-PDC, K24384-001-R-PDC, and 521955-158-R2-J5-PDC pancreatic carcinomas, 556581-035-R-J1 ovarian carcinoma, 324938-238-R-J1-PDC, 855422-203-R-J1-PDC and 883617-216-R-J1-PDC urothelial bladder carcinomas, 743489-274-T-PDC renal cell carcinoma, 138582-R-J1 Merkel cell tumor, K60290-347-R-J1 and K57222-313-R-J1-PDC glioblastomas, 653999-131-R-J2-PDC, LG0703-F948-PDC, and 349418-098-R-PDC non-small cell lung carcinomas, 885512-296-R-J2-PDC, 171881-019-R-J1-PDC breast carcinomas and 186277-243-T-J2-PDC and 233499-124-R-J2-PDC colon carcinomas were obtained from the NCI Patient-Derived Models Repository (PDMR, https://pdmr.cancer.gov). The established cell lines NCI/ADR-RES (RRID:CVCL_14520 and OVCAR-5 (RRID:CVCL_1628) ovarian carcinomas, 786-O (RRID:CVCL_1051) and A498 (RRID:CVCL_A498) renal cell carcinoma, NCI-H211 (ATCC, cat. CRL-5824; RRID:CVCL_1529), NCI-H196 (ATCC, cat. CRL-5823, RRID:CVCL_1509), SW 1271 (ATCC, cat. CRL-2177, RRID:CVCL_1716) and NCI-H1876 (ATCC, cat. CRL-5902, RRID:CVCL_1503) small cell lung carcinomas, MDA-MB-231 (RRID:CVCL_0062) and MDA-MB-468 (RRID:CVCL_0419)breast carcinomas (10-12). Pooled donor human umbilical vein endothelial cells (HUVEC, Lonza, cat. CC-2519) and human mesenchymal stem cells (hMSC, Lonza, cat. PT-2501) were purchased from Lonza (Walkersville, MD).
Cell Culture. All cells were maintained in an incubator at 37 degrees C and 5% CO2 with 95% humidity. The PDC lines were cultured according to standard operating procedures established by the NCI PDMR (https://pdmr.cancer.gov). Briefly all PDCs were thawed and cultured in Matrigel-coated flasks prepared with a working solution of 1X Ham's F-12 nutrient mix, without supplementation (Invitrogen, Waltham, MA, cat. 11765054), 100 U/mL penicillin-streptomycin (Invitrogen, cat. 15140122), and 2.5% Matrigel (Corning Inc., Corning, NY, cat. 354248) for the first three passages. […]

[1] = curve of first compound, second compound 0.1 µM
[2] = curve of first compound, second compound 0.316 µM
[3] = curve of first compound, second compound 1 µM
[4] = curve of first compound, second compound 3.16 µM
[5] = curve of first compound, second compound 10 µM
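Also: spheroids exposed to agents for 7 days after 3 days growth.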

Nc1ncn(C2CC(O)C(CO)S2)c(=O)n1 (configuration not stated) + NC1CC1c1ccc(-c2cccc(O)c2)cc1
99.3 nM: IC50 [4]
119 nM: IC50 [2]
inactive: viability, T/C (second compound 0.1 µM, first compound 0.000949 µM) 101% | viability, T/C (second compound 0.1 µM, first compound 0.003 µM) 106% | viability, T/C (second compound 0.1 µM, first compound 0.00949 µM) 102% | viability, T/C (second compound 0.1 µM, first compound 0.03 µM) 75.3% | viability, T/C (second compound 0.1 µM, first compound 0.0949 µM) 52.3% | viability, T/C (second compound 0.1 µM, first compound 0.3 µM) 34.4% | viability, T/C (second compound 0.316 µM, first compound 0.000949 µM) 111% | viability, T/C (second compound 0.316 µM, first compound 0.003 µM) 106% | viability, T/C (second compound 0.316 µM, first compound 0.00949 µM) 101% | viability, T/C (second compound 0.316 µM, first compound 0.03 µM) 75.8% | viability, T/C (second compound 0.316 µM, first compound 0.0949 µM) 56.2% | viability, T/C (second compound 0.316 µM, first compound 0.3 µM) 32.1% | viability, T/C (second compound 1 µM, first compound 0.000949 µM) 108% | viability, T/C (second compound 1 µM, first compound 0.003 µM) 95.7% | viability, T/C (second compound 1 µM, first compound 0.00949 µM) 98.1% | viability, T/C (second compound 1 µM, first compound 0.03 µM) 76.8% | viability, T/C (second compound 1 µM, first compound 0.0949 µM) 51.4% | viability, T/C (second compound 1 µM, first compound 0.3 µM) 30.3% | viability, T/C (second compound 3.16 µM, first compound 0.000949 µM) 95.1% | viability, T/C (second compound 3.16 µM, first compound 0.003 µM) 90.8% | viability, T/C (second compound 3.16 µM, first compound 0.00949 µM) 88.7% | viability, T/C (second compound 3.16 µM, first compound 0.03 µM) 69.2% | viability, T/C (second compound 3.16 µM, first compound 0.0949 µM) 52.1% | viability, T/C (second compound 3.16 µM, first compound 0.3 µM) 30.1% | viability, T/C (second compound 10 µM, first compound 0.000949 µM) 75.8% | viability, T/C (second compound 10 µM, first compound 0.003 µM) 71.8% | viability, T/C (second compound 10 µM, first compound 0.00949 µM) 81.3% | viability, T/C (second compound 10 µM, first compound 0.03 µM) 61.7% | viability, T/C (second compound 10 µM, first compound 0.0949 µM) 48.9% | viability, T/C (second compound 10 µM, first compound 0.3 µM) 31%
102 nM: IC50 [3]
93.9 nM: IC50 [1]
80.2 nM: IC50 [5]

Nc1ncn(C2CC(O)C(CO)O2)c(=O)n1 (configuration not stated)
inactive: viability, T/C (compound 0.00316 µM) 109% and 97.4% | viability, T/C (compound 0.01 µM) 122% and 97.5% | viability, T/C (compound 0.0316 µM) 128% and 95.1% | viability, T/C (compound 0.1 µM) 130% and 93.4% | viability, T/C (compound 0.316 µM) 120% and 91.2% | viability, T/C (compound 1 µM) 105% and 81.2%
> 1000 nM: IC50 (curve of compound)

CC[C@@]1(O)C(=O)OCc2c1cc1n(c2=O)Cc2cc3c(CN(C)C)c(O)ccc3nc2-1 + NC1CC1c1ccc(-c2cccc(O)c2)cc1
80.4 nM: IC50 [2]
37.4 nM: IC50 [4]
inactive: viability, T/C (second compound 0.1 µM, first compound 0.000316 µM) 103% | viability, T/C (second compound 0.1 µM, first compound 0.001 µM) 104% | viability, T/C (second compound 0.1 µM, first compound 0.00316 µM) 84.4% | viability, T/C (second compound 0.1 µM, first compound 0.01 µM) 68.9% | viability, T/C (second compound 0.1 µM, first compound 0.0316 µM) 64.3% | viability, T/C (second compound 0.1 µM, first compound 0.1 µM) 44.2% | viability, T/C (second compound 0.316 µM, first compound 0.000316 µM) 108% | viability, T/C (second compound 0.316 µM, first compound 0.001 µM) 107% | viability, T/C (second compound 0.316 µM, first compound 0.00316 µM) 87.8% | viability, T/C (second compound 0.316 µM, first compound 0.01 µM) 70.5% | viability, T/C (second compound 0.316 µM, first compound 0.0316 µM) 61.9% | viability, T/C (second compound 0.316 µM, first compound 0.1 µM) 46.4% | viability, T/C (second compound 1 µM, first compound 0.000316 µM) 103% | viability, T/C (second compound 1 µM, first compound 0.001 µM) 105% | viability, T/C (second compound 1 µM, first compound 0.00316 µM) 90.7% | viability, T/C (second compound 1 µM, first compound 0.01 µM) 70.3% | viability, T/C (second compound 1 µM, first compound 0.0316 µM) 53.2% | viability, T/C (second compound 1 µM, first compound 0.1 µM) 39.6% | viability, T/C (second compound 3.16 µM, first compound 0.000316 µM) 101% | viability, T/C (second compound 3.16 µM, first compound 0.001 µM) 96.7% | viability, T/C (second compound 3.16 µM, first compound 0.00316 µM) 90.5% | viability, T/C (second compound 3.16 µM, first compound 0.01 µM) 66.8% | viability, T/C (second compound 3.16 µM, first compound 0.0316 µM) 55.9% | viability, T/C (second compound 3.16 µM, first compound 0.1 µM) 33.6% | viability, T/C (second compound 10 µM, first compound 0.000316 µM) 90.1% | viability, T/C (second compound 10 µM, first compound 0.001 µM) 85.3% | viability, T/C (second compound 10 µM, first compound 0.00316 µM) 78.9% | viability, T/C (second compound 10 µM, first compound 0.01 µM) 57.3% | viability, T/C (second compound 10 µM, first compound 0.0316 µM) 47% | viability, T/C (second compound 10 µM, first compound 0.1 µM) 37.4%
71.1 nM: IC50 [1]
21 nM: IC50 [5]
36.6 nM: IC50 [3]
